Experimental data reported in patent US20040018151A1, “Use of anandamide/cannabinoid receptor/acceptor agonists in als screening and treatment methods” (priority 2002, published 2004).

What was measured:
CB1 cannabinoid receptor = CB1 cannabinoid receptor (Homo sapiens, UniProt P21554); settings: background statement; cited from earlier work
CB1 = CB1 (Homo sapiens, UniProt P21554); settings: background statement; cited from earlier work
[1] = test system: mouse primary spinal cord cultures; experiment: TBH oxidative damage in mixed spinal cord cultures (LDH release)
[2] = test system: primary neuronal cultures prepared from mouse spinal cord; settings: Abood et al, Neurosci Lett 309:197-201, 2001; cited from earlier work
[3] = test system: hSOD1^G93A mice (ALS mice); experiment: Survival of hSOD1^G93A mice; format: in vivo
Description: (§1) hSOD1^G93A mice (ALS mice) were administered Δ^9-THC (5 and 10 mg/kg body weight) or vehicle beginning at 60 days of age, i.e., prior to onset of disease signs. The earliest clinical signs of disease observed were tremors and shaking of their limbs when mice were suspended briefly in the air by their tails. These signs were never seen in non-transgenic littermates, but were always seen in hSOD^G93A mice after 75 days. In a subsequent set of experiments, mice were administered 20 mg/kg Δ^9-THC beginning on day 75 when tremors were first observed, i.e., after onset of disease signs. Mice were evaluated on a rotarod to follow disease progression.
In these experiments, the treatment effect was to slow the progression of disease (FIG. 1b). Furthermore, treatment with Δ^9-THC improved survival. […] Treatment with 10 mg/ kg Δ^9-THC extended mean survival from 125.9±1.6 days (vehicle, n=15) to 131.8±2.4 days (Δ^9-THC, n=8, p<0.05)(FIG. 2a, c). This represents a […] increase in survival in the 10 mg/ kg Δ^9-THC-treated group. At a (delayed) dose of 20 mg/kg the increase in mean survival was 6.4 days (5.1%).
FIG. 2. Δ^9-THC extends survival in hSOD1^G93A mice. Cumulative survival in hSOD1^G93A mice treated with 10 mg/kg Δ^9-THC (a) or 20 mg/kg Δ^9-THC (b). Mortality of hSOD1^G93A mice treated with Δ^9-THC or vehicle (c).

[4] = test system: hSOD1^G93A mice (ALS mice); experiment: Behaviour and body weight of treated hSOD1^G93A mice; format: in vivo
Description: as §1

[5] = test system: primary neuronal cultures prepared from mouse spinal cord; experiment: Kainate excitotoxicity in spinal cord neuronal cultures; format: cell-based; settings: previously observed
[6] = test system: hSOD1^G93A mice (ALS mice); experiment: Rotarod endurance (disease progression) in hSOD1^G93A mice; format: in vivo; settings: for Increase of A50% (age at which endurance declined to 50%) per 10 mg/kg of THC; A.(dose) estimate: nonlinear mixed effects model, rotarod; for Days from 9 to 1 min / Days to 50% endurance: prediction based on model
Description: as §1
In order to assess the effect of Δ^9-THC on disease progression, a logistic response curve was fit to the endurance time for each mouse using a nonlinear mixed effects model. For these experiments, each mouse was assessed on the rotarod at 5 and 10 rpm. […] A50% increased 3.3 days (±1.1 day) per 10 mg/kg of THC (2-sided p=0.003). In other words, disease progression as assessed by rotarod performance was delayed 3.3 days in the 10 mg/kg and 6.6 days in the 20 mg/kg group as compared to the vehicle treated animals. This represents a 3% increase in motor performance endurance in the 10 mg/kg group and a 6% increase in the 20 mg/kg group. Note that the increase in the 20 mg/kg group was not affected by the delay in initiation of treatment.
Animals were assessed later in the disease by testing them at the slower rotarod speed (5 rpm). In the data analysis, A50% increased 6.5 days (±0.4 day) when changing from 10 rpm to 5 rpm. However, the rate of decline increased by a factor of 2 in going from 10 rpm to 5 rpm. This rate of decline can also be understood by expressing it as number of days to decline from 9 minutes to 1-minute endurance, based on the fitting equation. At 10 rpm, it took 17.1 (±1.76) days to decline from 9 to 1 minute vs. 8.55 (±0.88) days at 5 rpm. […] FIG. 1a. Δ^9-THC delays progression of disease in hSOD1^G93A mice. Motor function was tested weekly on the rotarod at 10 and 5 rpm. The decline in endurance over time for each animal at 10 rpm is shown in (a). Mouse numbers 1-13 correspond to vehicle treated animals, numbers 1001-1008 correspond to the 10 mg/kg Δ^9-THC treatment group, and 2001-2009 correspond to the 20 mg/kg Δ^9-THC treatment group.
FIG. 1b Logistic response curves showing declines based on fitting a logistic model to observed data. Solid curves are tests at 10 rpm, dashed curves for 5 rpm. The three curves for each rpm are for doses of 0 (vehicle, blue), 10 (mg/kg Δ^9-THC, green) and 20 (mg/kg Δ^9-THC, red). Parameters for curves are based on a nonlinear mixed effects model given by Time=10/(1+exp((Age-A)/B)).

rodents = experiment: Motor toxicity in rodents; format: in vivo; settings: intraperitoneally
Description: For THC the effective dose range should be 10 mg-70 mg/kg/day intraperitoneally in rodents. Motor toxicity is seen at 84 mg/kg/day. An estimate of effective dose range in rodents can be obtained from comparison to other measures of bioactivity of these compounds, e.g. in analgesia and/or anticonvulsant activity. […] However, other routes of administration may include intravenous, inhaled or sub-lingual, formulations such as in a patch or a spray, whereby the doses would most likely be different (e.g. 100 mg/day in a patch) in both rodents and humans.

ALS patients = experiment: Open label crossover escalating dose study of Marinol in ALS patients; format: in vivo, humans
[7] = rpm 10, dose 10 as printed (r11)

Chain of CB1 cannabinoid receptor (P21554 whole entry): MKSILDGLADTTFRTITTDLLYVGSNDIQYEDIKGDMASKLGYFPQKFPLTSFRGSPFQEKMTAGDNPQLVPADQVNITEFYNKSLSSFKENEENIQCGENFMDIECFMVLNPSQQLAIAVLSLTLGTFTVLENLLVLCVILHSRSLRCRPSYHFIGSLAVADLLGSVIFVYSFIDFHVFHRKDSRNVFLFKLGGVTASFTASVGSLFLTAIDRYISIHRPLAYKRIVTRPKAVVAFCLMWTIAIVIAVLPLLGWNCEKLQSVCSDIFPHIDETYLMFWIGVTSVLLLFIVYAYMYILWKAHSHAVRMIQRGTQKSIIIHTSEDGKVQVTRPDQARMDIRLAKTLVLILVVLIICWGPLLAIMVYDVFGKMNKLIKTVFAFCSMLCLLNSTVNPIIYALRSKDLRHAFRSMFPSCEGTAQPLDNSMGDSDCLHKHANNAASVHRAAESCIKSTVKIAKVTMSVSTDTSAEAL
Chain of CB1 (P21554 whole entry): as above

Compound: CCCCCc1cc(O)c2c(c1)OC(C)(C)C1CCC(CO)=CC21 (stereo not shown) [11-hydroxy-THC]
- Agonist potency/activity relative to THC (CB1 cannabinoid receptor): more active than its parent

Compound: CCCCCCC(C)(C)c1cc(O)c2c(c1)OC(C)(C)[C@@H]1CC=C(CO)C[C@@H]21 [HU-210]
- Activity at central (CB1) receptor (CB1 cannabinoid receptor): retains activity at central (CB1)

Compound: CCCCCCC(C)(C)c1cc(O)c2c(c1)OC(C)(C)[C@H]1CC=C(CO)C[C@H]21 [HU-211, dexanabinol]
- Activity at central (CB1) receptor (CB1 cannabinoid receptor): inactive

Compound: CCCCCCCC/C=C\CCCCCCCC(N)=O [Oleamide]
- Binding to CB1 (CB1): does not bind CB1

Compound: CCCc1cc(O)c2c(c1)OC(C)(C)[C@@H]1CCC(C)=C[C@@H]21 [Propyl-THC]
- Agonist potency/activity relative to THC (CB1 cannabinoid receptor): less agonist activity than THC

Compound: Cc1c(C(=O)NN2CCCCC2)nn(-c2ccc(Cl)cc2Cl)c1-c1ccc(Cl)cc1 [SR141716A]
- Block of the antioxidant effect of Δ^9-THC ([1]; 1 μM SR141716A plus 0.5 μM Δ^9-THC, TBH): not blocked

Compound: CCCCCc1cc(O)c2c(c1)OC(C)(C)[C@@H]1CCC(C)=C[C@@H]21 [Δ^9-THC, delta-9-tetrahydrocannabinol]
- Kainate toxicity [2]: effectively reduce kainate toxicity
- Survival ([3]; 5 mg/kg): trend towards increased survival
- Mean survival ([3]; 10 mg/kg, n=8, vehicle 125.9±1.6 days): 131.8 ± 2.4 days
- Weights, difference between treatment groups ([4]; 5, 10, 20 mg/kg vs vehicle): no significant difference in weights
- Overt behavioral changes ([4]; any of the doses given (5, 10, 20 mg/kg)): No overt behavioral changes
- Cytotoxicity ([1]; 200 μM TBH for 5 hours in the presence of 0.5 μM Δ^9-THC, TBH alone 74 (±14) %, n=4): 28 (±8) %
- Protection of spinal cord neurons against direct excitotoxin (kainate) exposure, compared with NBQX [5]: as effective as the anti-excitotoxic compound NBQX
- Delay of disease progression as assessed by rotarod performance vs vehicle ([6]; 10 mg/kg): 3.3 days
- Increase in motor performance endurance ([6]; 10 mg/kg): 3%
- Increase in motor performance endurance ([6]; 20 mg/kg): 6%
- Delay of disease progression as assessed by rotarod performance vs vehicle ([6]; 20 mg/kg, from day 75): 6.6 days
- Increase of A50% (age at which endurance declined to 50%) per 10 mg/kg of THC; A.(dose) estimate [6]: 3.29 days
- Increase of A50% (age at which endurance declined to 50%) per 10 mg/kg of THC; A.(dose) estimate ([6]; listed as THC): 3.3 days
- Days from 9 to 1 min ([6]; rpm 5, dose 10): 8.55 days
- Days to 50% endurance ([6]; rpm 5, dose 10): 109.8 days
- Days from 9 to 1 min ([6]; rpm 5, dose 20): 8.55 days
- Days to 50% endurance ([6]; rpm 5, dose 20): 113.1 days
- Days from 9 to 1 min ([6]; rpm 10, dose 10 (r10)): 17.10 days
- Days to 50% endurance ([6]; rpm 10, dose 10 (r10)): 103.3 days
- Days from 9 to 1 min [6, 7]: 17.10 days
- Days to 50% endurance [6, 7]: 106.6 days
- Dose at which motor toxicity is seen (rodents): 84 mg/kg/day
- Patients showing reduction in rate of decline of ALSFRS (ALS patients; 3 month trial period): 11 of the 19
- Serious adverse events (ALS patients; 25 patients treated, one death unrelated to drug effect): no other serious adverse events
- Symptomatic benefits (ALS patients; ALS patients while taking Marinol): Symptomatic benefits were seen in insomnia, appetite, fasciculations and spasticity
- Tolerability (ALS patients; ALS patients, oral, escalating dose 2.5-10 mg, 3 months): well tolerated
- Tolerability (ALS patients; humans, 10 mg/day orally): well tolerated
- Average rate of decline (ALSFRS) (ALS patients; when patients were taking drug): 27%
